For data set [1] the following is noted: from a solution of silicic acid; cited from earlier work.
The nature of data set [2]: Circular dichroism of peptide solutions. The data set is classed as physicochemical. Particulars: for CD spectrum profile: 0.8 mM in 50 mM phosphate buffer pH 7, after 24 h incubation. The protocol: CD spectra were recorded on peptide solutions at 0.8 mM (by weight) in 50 mM phosphate buffer at pH 7. Solutions had been incubated at room temperature for a minimum of 24 h. Scans were performed in 1 nm increments with 3 s scans at 20° C. and averaged over 5 scans.
The CD spectrum of peptide 1 in the A range of 200-250 nm was fitted by use of the novel Beta Structure Selection algorithm with normalized root mean square deviation of 0.018 (A. Micsonai, F. Wien, L. Kernya, Y.-H. Lee, Y. Goto, M. Réfrégiers and J. Kardos, Proc. Natl. Acad. Sci., 2015, 112, E3095-E3103). The algorithm predicts that the secondary or tertiary structure of the peptide consists of approximately 56% random coils, 27% beta-sheets and 17% beta-turns.
(Circular dichroism is widely used to follow secondary structure.)

Data set [3] can be described thus: Silica precipitation (mineralisation) by peptides. Particulars: silicic acid 25 mM, peptide 0.5 mg/mL, 50 mM phosphate buffer pH 7, RT. The protocol:
The individual members of the peptide library were subjected to silica mineralisation conditions analogous to those used for the R5 peptide (C. C. Lechner and C. F. W. Becker, Chem. Sci., 2012, 3, 3500). Phosphate buffered solution at pH 7 was used as a background for the reaction, and peptides were individually incubated in this buffer for 24 h prior to silica precipitation. White precipitate was observable in all samples within the first five minutes following addition of the silicic acid.
Peptides were dissolved to a final concentration of 0.5 mg/mL in 50 mM potassium phosphate buffer at pH 7.0 and left standing at room temperature overnight. Silicic acid was generated by hydrolysis of 250 mM tetramethoxysilane in 1 mM aqueous HCl for 4 min. Silica precipitation reactions were initiated by addition of silicic acid to peptide solutions to a final concentration of 25 mM. Reactions were incubated at RT for 30 min. Silica precipitates were collected by centrifugation (5 min, 16.873×g) and washed twice with water. […] All precipitations were carried out in triplicates.

A short description of data set [4]: TEM imaging of peptides and peptide-silica mixtures. Type of data set: physicochemical. As to conditions: phosphate buffer, absence of silicic acid. The protocol:
Peptide and peptide-silica mixtures suspended in 50 mM phosphate buffer were applied onto carbon coated copper grid and subsequently viewed with Philips CM200 electron microscope operated at 200 kV.

[5] abbreviates: CD 200-250 nm fitted with Beta Structure Selection algorithm.

Entries after “also recorded” stand apart in the source; their conditions may differ. *1 amine or outer side, *2 acyl side, *3 side chain or, on linkers, in order; H or OH if unused. Where no end group is shown, it is not given here. [ ]: non-standard residue; d: D form. εLys = N[C@@H](CCCCN[*:1])C(=O)[*:2]

On to SSKKSGSYSGSKGSKRRIL [Peptide R5], for which the “silica precipitation and morphology” value in data set [1] is listed as “highly efficient in precipitating monodisperse silica particles”.
Take rrilkrril [Peptide 2]: the CD spectrum profile entry in data set [2] is “mirror image of the spectrum of peptide 1”.
For KRRIL (truncated silaffin peptide I), in data set [1], the “silica precipitation and morphology” value is “precipitate silica with a random morphology”.
For the substance RRILKRRIL [Peptide 1], the CD spectrum profile result in data set [2] is “random coil conformation”. In data set [2] (setting [5]), the “secondary structure: beta-sheets” value is around 27%, the “secondary structure: beta-turns” value is around 17% and the “secondary structure: random coils” value is on record as “approximately 56%”.
On to rriil(εK)RRLL [Peptide 66], for which, in data set [3], the “capacity to precipitate silica” value was “still able to precipitate silica”.
In the case of rril(εK)RRIIL [Peptide 7], the CD spectrum profile result in data set [2] is recorded as “significantly lower magnitudes than those for peptides 1-4”.
For rril(εK)RRIL [Peptide 6], in data set [2], the CD spectrum profile entry is “significantly lower magnitudes than those for peptides 1-4”.
With “RRIIL(εK)RRIL (RRIIL[εLys]RRIL-OH; also: Lys6 bound via its epsilon amine to the preceding Leu (branched)) [Peptide 9]”, in data set [2], the CD spectrum profile result is “profile was similar to that of peptides 1”.
Same read-out and setting: the entry for rriIKRRIL [Peptide 5] is “significantly lower magnitudes than those for peptides 1-4”.
For the substance rriil(εK)RRIL [Peptide 8], the CD spectrum profile result in data set [2] is “significantly lower magnitudes than those for peptides 1-4; also recorded: the minimum at 200 nm disappeared and the curve gained a positive character”. In addition, the “diameter of peptide rods or narrow sheets (TEM)” value in data set [4] is recorded as 80-200 nm.

Values taken from patent publication US20210106679A1, “Silaffin Silica Particle Adjuvant” (UNIVERSITÄT WIEN, priority 2017, published 2021).
